Laboratory results from PubChem BioAssay AID2060496 (Molecular Pharmacology Branch, DTP, NCI, 2025).
Where “and” joins values, the source holds several entries; their conditions need not be identical. Equal values may be shown once.

System: 276233-004-R-J1-PDC complex spheroid viability
Assay: Anticancer human tumor 276233-004-R-J1-PDC patient-derived colon adenocarcinoma cell line growth inhibition [GQUAD]
Conditions: for viability, T/C: stronger effect = lower value
Description: DNA G-quadruplex Stabilizer Agents in Combinations in Complex Spheroids
A high-throughput screen of multi-cell type tumor spheroids was designed to identify active combinations of DNA G-quadruplex stabilizer agents and targeted small molecules. Complex spheroids include a stromal component modeled by human endothelial cells (HUVEC) and fibroblasts modeled by human mesenchymal stem cells (MSCs). The concentration ranges selected for each drug and investigational agent were based upon clinically achievable concentrations if the clinical Cmax of the agent was known.
Compounds. The drugs and investigational agents: pidnarulex (CX-5461; NSC782164), APTO-253 (NSC789042), BRACO-19 (NSC847499), peposertib (NSC802822), ceralasertib (NSC780249), elimusertib (NSC800525), camonsertib (NSC841442), AZD-1390 (NSC803789), olaparib (NSC753686), talazoparib (NSC767125), ART-558 (NSC835418), sotorasib (NSC818433), MRTX-1133 (NSC836407), SN-38 (NSC673596), topotecan (NSC609699), etoposide (NSC141540), doxorubicin (NSC123127), gemcitabine (NSC613327), 5-fluorouracil (NSC19893), paclitaxel (NSC125973), vemurafenib (NSC761431), panobinostat (NSC761190), R-306465 (JNJ-16241199; NSC773264), adavosertib (NSC754352), TP-3654 (NSC805149), carboplatin (NSC241240), KSQ-4279 (NSC840948), and staurosporine (NSC755774) were obtained from the National Cancer Institute (NCI) Developmental Therapeutics Program Chemical Repository (34). The FDA-approved anticancer drug set is available from the NCI Developmental Therapeutics Program. […] The stock solutions were prepared in dimethyl sulfoxide (DMSO, Sigma-Aldrich, St. Louis, MO, cat. D2650) at 800-fold the tested concentration and stored at -70 degrees C prior to their use. All drugs and investigational agents were tested over a range starting from a high concentration at or near the clinical Cmax and decreasing in half-log increments. If the clinical Cmax for an agent had not been determined, the highest concentration tested was 10 microM.
2.3 Cell Culture. All cells were maintained in an incubator at 37 degrees C and 5% CO2 with 95% humidity. The PDC lines were cultured according to standard operating procedures established by the NCI PDMR. All PDCs were thawed and cultured in Matrigel-coated flasks prepared with a working solution of 1X Ham's F-12 nutrient mix, without supplementation (Invitrogen, cat. 11765054), 100 U/mL penicillin-streptomycin (Invitrogen, cat. 15140122), and 2.5% Matrigel (Corning Inc., cat. 354248) for the first three passages. The 857933-349-R-J2-PDC line was cultured in 6C/Colon 1B media, which includes advanced DMEM/F-12 (Thermo Fisher Scientific, cat. 12634028), 10 mM HEPES (Thermo Fisher Scientific, cat. 15630080), 1X GlutaMAX supplement (Thermo Fisher Scientific, cat. 35050061), 0.1 mg/mL primocin (InvivoGen, cat. ant-pm-2), 10% defined fetal bovine serum, heat inactivated (HyClone Laboratories Inc., cat. SH30070.03HI), 50% L-WRN conditioned media (ATCC, cat. CRL-3276), 1.25 mM N-Acetyl-L-cysteine (Sigma-Aldrich, cat. A9165), 10 mM nicotinamide (Sigma-Aldrich, cat. N0636), 1X B-27 supplement (Thermo Fisher Scientific, cat. 17504044), 1X N-2 supplement (Thermo Fisher Scientific, cat. 17502048), 10 microM Y-27632 dihydrochloride (Tocris Bioscience, cat. 1254), and 50 ng/mL human EGF recombinant protein (Thermo Fisher Scientific, cat. PHG0311). The 485176-168-R4-J1-PDC line was cultured in Panc media, which includes all 6C/Colon 1B media components plus 100 ng/mL human FGF-10 (Thermo Fisher Scientific, cat. 100-26), 500 nM SB-431542 (Selleckchem, cat. S1067), and gastrin (Tocris, cat. 3006).
[…]

[1] = curve of first compound, second compound 0.0316 µM
[2] = curve of first compound, second compound 0.1 µM
[3] = curve of first compound, second compound 0.316 µM
[4] = curve of first compound, second compound 1 µM
[5] = curve of first compound, second compound 3.16 µM
[6] = curve of first compound, second compound 10 µM
[7] = second compound 0.0316 µM, first compound 0.0316 µM
[8] = second compound 0.0316 µM, first compound 0.1 µM
[9] = second compound 0.0316 µM, first compound 0.316 µM
[10] = second compound 0.0316 µM, first compound 1 µM
[11] = second compound 0.0316 µM, first compound 3.16 µM
[12] = second compound 0.0316 µM, first compound 10 µM
[13] = second compound 0.1 µM, first compound 0.0316 µM
[14] = second compound 0.1 µM, first compound 0.1 µM
[15] = second compound 0.1 µM, first compound 0.316 µM
[16] = second compound 0.1 µM, first compound 1 µM
[17] = second compound 0.1 µM, first compound 3.16 µM
[18] = second compound 0.1 µM, first compound 10 µM
[19] = second compound 0.316 µM, first compound 0.0316 µM
[20] = second compound 0.316 µM, first compound 0.1 µM
[21] = second compound 0.316 µM, first compound 0.316 µM
[22] = second compound 0.316 µM, first compound 1 µM
[23] = second compound 0.316 µM, first compound 3.16 µM
[24] = second compound 0.316 µM, first compound 10 µM
[25] = second compound 1 µM, first compound 0.0316 µM
[26] = second compound 1 µM, first compound 0.1 µM
[27] = second compound 1 µM, first compound 0.316 µM
[28] = second compound 1 µM, first compound 1 µM
[29] = second compound 1 µM, first compound 3.16 µM
[30] = second compound 1 µM, first compound 10 µM
[31] = second compound 3.16 µM, first compound 0.0316 µM
[32] = second compound 3.16 µM, first compound 0.1 µM
[33] = second compound 3.16 µM, first compound 0.316 µM
[34] = second compound 3.16 µM, first compound 1 µM
[35] = second compound 3.16 µM, first compound 3.16 µM
[36] = second compound 3.16 µM, first compound 10 µM
[37] = second compound 10 µM, first compound 0.0316 µM
[38] = second compound 10 µM, first compound 0.1 µM
[39] = second compound 10 µM, first compound 0.316 µM
[40] = second compound 10 µM, first compound 1 µM
[41] = second compound 10 µM, first compound 3.16 µM
[42] = second compound 10 µM, first compound 10 µM
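Further: spheroids exposed to drugs for seven days.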
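Wherever viability, T/C is given: 100% = DMSO vehicle control viability.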

CC(=O)O[C@H]1C(=O)[C@@]2(C)[C@H]([C@H](OC(=O)c3ccccc3)[C@]3(O)C[C@H](OC(=O)[C@H](O)[C@@H](NC(=O)c4ccccc4)c4ccccc4)C(C)=C1C3(C)C)[C@]1(OC(C)=O)CO[C@@H]1C[C@@H]2O
viability, T/C (compound 0.0316 µM): 84.1% and 80.2% and 104%
viability, T/C (compound 0.1 µM): 96.1% and 82.8% and 71.2%
viability, T/C (compound 0.316 µM): 82.9% and 80.8% and 85.8%
viability, T/C (compound 1 µM): 87.2% and 95.1% and 88.6%
viability, T/C (compound 3.16 µM): 99.2% and 101% and 86.8%
viability, T/C (compound 10 µM): 76.9% and 80.1% and 86.2%
IC50 (curve of compound): > 10 µM

CCCS(=O)(=O)Nc1ccc(F)c(C(=O)c2c[nH]c3ncc(-c4ccc(Cl)cc4)cc23)c1F
viability, T/C (compound 0.0316 µM): 85% and 77.1% and 99.3%
viability, T/C (compound 0.1 µM): 91.3% and 96.2% and 84.7%
viability, T/C (compound 0.316 µM): 85.8% and 98.6% and 111%
viability, T/C (compound 1 µM): 97.5% and 83.7% and 96.3%
viability, T/C (compound 3.16 µM): 79.2% and 91% and 121%
viability, T/C (compound 10 µM): 56.8% and 59.4% and 76.4%
IC50 (curve of compound): > 10 µM

Nc1ccn(C2OC(CO)C(O)C2(F)F)c(=O)n1 (stereo not given) + CN(C)c1ccc(Nc2c3ccc(NC(=O)CCN4CCCC4)cc3nc3cc(NC(=O)CCN4CCCC4)ccc23)cc1
IC50 [1]: > 10 µM
IC50 [2]: > 10 µM
IC50 [3]: > 10 µM
IC50 [4]: > 10 µM
IC50 [5]: > 10 µM
IC50 [6]: > 10 µM
viability, T/C [7]: 97.1%
viability, T/C [8]: 109%
viability, T/C [9]: 96.2%
viability, T/C [10]: 90.6%
viability, T/C [11]: 79.6%
viability, T/C [12]: 59%
viability, T/C [13]: 86.1%
viability, T/C [14]: 88.6%
viability, T/C [15]: 89.7%
viability, T/C [16]: 94.5%
viability, T/C [17]: 73.8%
viability, T/C [18]: 65%
viability, T/C [19]: 71.8%
viability, T/C [20]: 78.7%
viability, T/C [21]: 59.6%
viability, T/C [22]: 56.3%
viability, T/C [23]: 56.6%
viability, T/C [24]: 66.9%
viability, T/C [25]: 70.8%
viability, T/C [26]: 53.9%
viability, T/C [27]: 53.6%
viability, T/C [28]: 51%
viability, T/C [29]: 57.9%
viability, T/C [30]: 57.8%
viability, T/C [31]: 64.2%
viability, T/C [32]: 60.5%
viability, T/C [33]: 56%
viability, T/C [34]: 58.1%
viability, T/C [35]: 44.7%
viability, T/C [36]: 53.8%
viability, T/C [37]: 56.7%
viability, T/C [38]: 57.9%
viability, T/C [39]: 47.5%
viability, T/C [40]: 65.9%
viability, T/C [41]: 61.4%
viability, T/C [42]: 47.2%

O=c1[nH]cc(F)c(=O)[nH]1 + Cc1[nH]c2ccc(F)cc2c1-c1nc2c3cccnc3c3ncccc3c2[nH]1
IC50 [1]: > 10 µM
IC50 [2]: > 10 µM
IC50 [3]: > 10 µM
IC50 [4]: > 10 µM
IC50 [5]: > 10 µM
IC50 [6]: < 0.0316 µM
viability, T/C [7]: 71.4%
viability, T/C [8]: 85.6%
viability, T/C [9]: 92.9%
viability, T/C [10]: 76.8%
viability, T/C [11]: 77.5%
viability, T/C [12]: 100%
viability, T/C [13]: 79.3%
viability, T/C [14]: 97.2%
viability, T/C [15]: 88.9%
viability, T/C [16]: 82.7%
viability, T/C [17]: 83%
viability, T/C [18]: 80%
viability, T/C [19]: 75.7%
viability, T/C [20]: 91.2%
viability, T/C [21]: 80.4%
viability, T/C [22]: 94%
viability, T/C [23]: 74.5%
viability, T/C [24]: 85.3%
viability, T/C [25]: 57.3%
viability, T/C [26]: 63%
viability, T/C [27]: 73.1%
viability, T/C [28]: 65.6%
viability, T/C [29]: 70.8%
viability, T/C [30]: 73.3%
viability, T/C [31]: 54.6%
viability, T/C [32]: 49.9%
viability, T/C [33]: 48.5%
viability, T/C [34]: 48%
viability, T/C [35]: 53.8%
viability, T/C [36]: 51.9%
viability, T/C [37]: 41.2%
viability, T/C [38]: 46.7%
viability, T/C [39]: 43.2%
viability, T/C [40]: 44.5%
viability, T/C [41]: 45.3%
viability, T/C [42]: 42.9%

CC(C)(O)C1CCC(Nc2ccc3ncc(-c4cccc(C(F)(F)F)c4)n3n2)CC1 (stereo not given) + Cc1[nH]c2ccc(F)cc2c1-c1nc2c3cccnc3c3ncccc3c2[nH]1
IC50 [1]: 2.15 µM
IC50 [2]: 0.922 µM
IC50 [3]: 0.558 µM
IC50 [4]: < 0.0316 µM
IC50 [5]: < 0.0316 µM
IC50 [6]: < 0.0316 µM
viability, T/C [7]: 78.5%
viability, T/C [8]: 68.9%
viability, T/C [9]: 72.2%
viability, T/C [10]: 54.3%
viability, T/C [11]: 46.7%
viability, T/C [12]: 48.8%
viability, T/C [13]: 73.3%
viability, T/C [14]: 71%
viability, T/C [15]: 75.6%
viability, T/C [16]: 48.2%
viability, T/C [17]: 42.2%
viability, T/C [18]: 43.7%
viability, T/C [19]: 56.8%
viability, T/C [20]: 61%
viability, T/C [21]: 64.2%
viability, T/C [22]: 39%
viability, T/C [23]: 34.8%
viability, T/C [24]: 40.9%
viability, T/C [25]: 46.4%
viability, T/C [26]: 39.4%
viability, T/C [27]: 40%
viability, T/C [28]: 25.2%
viability, T/C [29]: 26.6%
viability, T/C [30]: 24.5%
viability, T/C [31]: 17.1%
viability, T/C [32]: 14.1%
viability, T/C [33]: 17.6%
viability, T/C [34]: 16.2%
viability, T/C [35]: 10.1%
viability, T/C [36]: 7.57%
viability, T/C [37]: 39.4%
viability, T/C [38]: 38%
viability, T/C [39]: 33.9%
viability, T/C [40]: 30.9%
viability, T/C [41]: 13.7%
viability, T/C [42]: 10.8%
